Laboratory results: patent publication US6455270B1, “Method for inhibiting eukaryotic protein kinases” (TerraGen Discovery Inc., priority 1997, dated 2002)

Experiments:
Streptomyces 85E = assay: Inhibition of sporulation in Streptomyces 85E (filter paper disc on freshly seeded plate); assay type: cell-based, Streptomyces WEC478-85E; conditions: for zone of inhibition at 10 µg/disc: Streptomyces, 85E, 10 ug compound applied to disc; for Growth of the vegetative mycelia: disc assay, 10 ug
Source text: adding the material to be tested for kinase inhibitory activity to a growing culture of a prokaryotic organism such as a streptomycete;
allowing the culture to grow for a period of time in the presence of the material; and
observing the culture for altered development relative to development of the prokaryotic organism grown in the absence of the material. Observation of altered development is indicative that the material has activity as an inhibitor of post-translational protein phosphorylation. In particular, the material to be tested can be added to a growing culture of the prokaryotic organism by placing a carrier disk bearing the material on a freshly seeded plate. Inhibition of the development of aerial mycelia and spore formation is an indicator that the material has activity as an inhibitor of post-translational protein phosphorylation.
We have used a wild strain of Streptomyces isolated from soil and designated Streptomyces WEC478-85E (hereinafter strain 85E) to test lichen extracts. Strain 85E has been deposited with the American Type, Culture Collection in accordance with the provisions of the Budapest treaty and has been assigned Accession Number ATCC 55824.
In the test assay, the lichen-extract to be tested was applied to a filter paper disk and then placed on a plate which has been freshly seeded with the strain 85E test organism. The test organism is then allowed to grow in the presence of the filter paper disk for a period of 24 to 36 hours, after which the organism is evaluated for altered development in the zone around the disk. An observation of an inhibition of the formation of aerial mycelia and spores, without inhibition of the growth of vegetative mycelia is particularly indicative of the presence of an inhibitor of post-translational phosphorylation.

Protein Kinase C = Protein Kinase C inhibition (PKC reaction); assay type: biochemical; conditions: 10 ng PKC, incubated 30 min. at 30° C. with 5 ug compound (about 600 uM in 25 ul)
Method: III. Protein Kinase C incubated 30 min. at 30° C. with 5 ug usnic acid or 5 ug vulpinic acid: 5 ug in the 50 ul PTK reaction mixture represents a concentration of about 300 uM for both of these compounds and twice that in the 25 ul PKC reactions. Thus, inhibition was detected for this particular protein tyrosine kinase and only minimally inhibitory for protein kinase C. Other protein kinases may show greater or lesser levels of inhibition.

Human c-Src kinase = Human c-Src kinase (Homo sapiens, UniProt P12931); assay: Human c-Src kinase inhibition (PTK reaction); assay type: biochemical; conditions: 0.2 unit c-Src
Method: I. Human c-Src kinase incubated 30 min. at 30° C. with 5 ug usnic acid or-vulpinic acid: II. Human c-Src incubated 5 min. at 30° C. with 5 ug usnic acid or 5 ug vulpinic acid: 5 ug in the 50 ul PTK reaction mixture represents a concentration of about 300 uM for both of these compounds and twice that in the 25 ul PKC reactions. Thus, inhibition was detected for this particular protein tyrosine kinase and only minimally inhibitory for protein kinase C. Other protein kinases may show greater or lesser levels of inhibition.

Human c-Src kinase, sequence (P12931 whole entry): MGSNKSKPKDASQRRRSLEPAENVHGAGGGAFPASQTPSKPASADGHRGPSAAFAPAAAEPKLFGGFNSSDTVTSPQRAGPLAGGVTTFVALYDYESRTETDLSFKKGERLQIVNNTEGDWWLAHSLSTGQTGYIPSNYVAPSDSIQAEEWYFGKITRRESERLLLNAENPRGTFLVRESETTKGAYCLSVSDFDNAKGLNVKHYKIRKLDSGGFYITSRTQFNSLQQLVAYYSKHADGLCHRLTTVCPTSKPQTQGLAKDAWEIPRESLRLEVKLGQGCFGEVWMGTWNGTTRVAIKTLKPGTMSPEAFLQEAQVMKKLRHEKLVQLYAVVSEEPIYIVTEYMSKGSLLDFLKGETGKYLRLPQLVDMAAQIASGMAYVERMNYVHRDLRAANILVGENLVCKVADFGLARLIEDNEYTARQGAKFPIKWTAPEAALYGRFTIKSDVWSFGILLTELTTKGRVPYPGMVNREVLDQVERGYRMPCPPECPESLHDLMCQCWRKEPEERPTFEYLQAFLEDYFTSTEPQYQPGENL

| SMILES | zone of inhibition at 10 µg/disc (Streptomyces 85E) | Growth of the vegetative mycelia (Streptomyces 85E) | Protein Kinase C reaction reading (control reaction 0.289) (Protein Kinase C) | c-Src kinase reaction reading (control reaction 0.208) (Human c-Src kinase; incubated 5 min. at 30° C. with 5 ug compound (about 300 uM in 50 ul)) | c-Src kinase reaction reading (control reaction 0.562) (Human c-Src kinase; incubated 30 min. at 30° C. with 5 ug compound (about 300 uM in 50 ul)) |
| --- | --- | --- | --- | --- | --- |
| CC(=O)c1c(O)c(C)c(O)c2c1OC1=CC(=O)C(C(C)=O)C(=O)C12C (stereo not shown) [usnic acid] | 15 mm | not inhibited |  |  |  |
| COC(=O)/C(=C1/OC(=O)C(c2ccccc2)=C1O)c1ccccc1 [vulpinic acid] | 15 mm | not inhibited | 0.230 | 0.180 | 0.483 |
